Assay results published in ChEMBL document CHEMBL4020815 (J Med Chem, 2017).

Tests used:
CYP3A4 = CYP3A4 (Homo sapiens, UniProt P08684); assay: Inhibition of human CYP3A4 at 10 uM relative to control; assay type: ADME
[1] = molecular target: T1, Bifunctional methylenetetrahydrofolate dehydrogenase/cyclohydrolase 2, mitochondrial (Homo sapiens, UniProt Q9H903); assay: Inhibition of MTHFD2L (unknown origin) using NAD/5,10-methylene THF as substrate after 2 hrs by HPLC method
T1 sequence (Q9H903 whole entry): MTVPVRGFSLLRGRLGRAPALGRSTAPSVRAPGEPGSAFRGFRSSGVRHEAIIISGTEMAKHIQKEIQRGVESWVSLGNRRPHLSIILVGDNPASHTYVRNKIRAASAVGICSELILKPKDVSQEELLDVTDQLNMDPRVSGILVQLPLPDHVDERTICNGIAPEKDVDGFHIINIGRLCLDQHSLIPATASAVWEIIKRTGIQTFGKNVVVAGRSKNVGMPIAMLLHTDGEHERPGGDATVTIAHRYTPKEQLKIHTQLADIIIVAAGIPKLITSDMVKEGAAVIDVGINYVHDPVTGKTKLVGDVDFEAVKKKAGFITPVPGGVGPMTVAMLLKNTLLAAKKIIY

[2] = Antitumor activity against human MDA-MB-231met2 cells xenografted in athymic nude mouse assessed as tumor volume at 30 mg/kg, bid administered via oral gavage for 22 days relative to control; assay type: functional
Mus musculus [3] = assay: In vivo inhibition of AICARFT in tumor of low folate diet fed nude mouse xenografted with human NCI-H460 cells assessed as increase in circulating AICAr levels at 0.3 to 30 mg/kg after 4 hrs relative to vehicle-treated control; assay type: functional
[4] = molecular target: T2, Serine hydroxymethyltransferase, cytosolic (Homo sapiens, UniProt P34896); assay: Inhibition of SHMT1 (unknown origin) using serine/THF as substrate after 50 mins by HPLC method
T2 sequence (P34896 whole entry): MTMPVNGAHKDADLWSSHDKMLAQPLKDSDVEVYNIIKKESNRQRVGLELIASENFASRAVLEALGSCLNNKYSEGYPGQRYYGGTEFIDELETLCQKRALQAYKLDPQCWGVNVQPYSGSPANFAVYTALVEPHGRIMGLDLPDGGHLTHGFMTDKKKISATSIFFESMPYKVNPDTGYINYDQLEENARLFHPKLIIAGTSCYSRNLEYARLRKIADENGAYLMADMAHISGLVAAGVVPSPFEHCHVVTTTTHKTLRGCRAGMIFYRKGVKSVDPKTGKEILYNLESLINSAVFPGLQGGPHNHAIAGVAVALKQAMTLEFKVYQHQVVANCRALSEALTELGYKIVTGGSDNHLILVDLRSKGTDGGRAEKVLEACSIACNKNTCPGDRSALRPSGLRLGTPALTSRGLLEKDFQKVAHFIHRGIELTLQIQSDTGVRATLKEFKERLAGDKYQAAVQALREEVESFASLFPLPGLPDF

Mus musculus [5] = assay: Unbound Cmax in CD-1 mouse at 10 mg/kg, po by LC-MS/MS method; assay type: ADME, organism-based; details: in vivo
[6] = molecular target: T3, C-1-tetrahydrofolate synthase, cytoplasmic (Homo sapiens, UniProt P11586); assay: Inhibition of MTHFD1 (unknown origin) using NADP/5,10-methylene THF as substrate after 30 mins by HPLC method
T3 sequence (P11586 whole entry): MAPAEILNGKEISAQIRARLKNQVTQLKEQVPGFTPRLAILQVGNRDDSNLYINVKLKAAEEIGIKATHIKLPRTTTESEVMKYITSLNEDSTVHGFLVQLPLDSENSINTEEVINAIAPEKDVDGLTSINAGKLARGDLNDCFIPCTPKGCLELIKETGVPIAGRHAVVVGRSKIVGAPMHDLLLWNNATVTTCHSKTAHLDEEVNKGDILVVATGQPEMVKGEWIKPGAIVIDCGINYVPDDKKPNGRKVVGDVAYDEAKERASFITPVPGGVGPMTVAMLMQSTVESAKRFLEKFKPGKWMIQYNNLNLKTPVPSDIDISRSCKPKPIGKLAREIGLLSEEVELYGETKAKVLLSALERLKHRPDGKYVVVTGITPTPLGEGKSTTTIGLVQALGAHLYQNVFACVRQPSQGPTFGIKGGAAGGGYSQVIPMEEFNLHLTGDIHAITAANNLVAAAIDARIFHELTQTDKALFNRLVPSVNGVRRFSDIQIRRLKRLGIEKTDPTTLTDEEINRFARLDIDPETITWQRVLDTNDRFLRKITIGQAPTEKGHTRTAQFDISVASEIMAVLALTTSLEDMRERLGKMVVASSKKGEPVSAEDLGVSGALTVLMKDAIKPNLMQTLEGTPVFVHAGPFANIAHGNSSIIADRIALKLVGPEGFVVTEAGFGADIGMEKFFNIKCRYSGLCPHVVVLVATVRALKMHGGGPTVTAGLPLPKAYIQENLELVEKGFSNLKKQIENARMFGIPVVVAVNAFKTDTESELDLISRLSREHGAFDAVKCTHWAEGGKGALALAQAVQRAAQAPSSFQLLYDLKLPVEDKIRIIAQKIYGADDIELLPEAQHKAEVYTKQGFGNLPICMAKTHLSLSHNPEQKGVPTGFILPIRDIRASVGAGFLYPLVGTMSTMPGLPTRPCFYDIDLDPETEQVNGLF

MDA-MB-231met2 = assay: Antitumor activity against human MDA-MB-231met2 cells xenografted in athymic nude mouse assessed as tumor growth inhibition administered as bid via oral gavage for 22 days; assay type: functional, cell-based
Mus musculus [7] = assay: Toxicity in athymic nude mouse xenografted with human MDA-MB-231met2 cells assessed as body weight loss at 30 to 60 mg/kg, bid administered via oral gavage for 22 days; assay type: organism-based; details: in vivo, 528 h
[8] = Permeability across apical to basolateral side in MDCK cells at 20 uM; assay type: ADME, cell-based, Canis lupus familiaris; details: dog
CYP2D6 = CYP2D6 (Homo sapiens, UniProt P10635); assay: Inhibition of human CYP2D6 at 10 uM relative to control; assay type: ADME
Mus musculus [9] = assay: Unbound AUC in CD-1 mouse at 10 mg/kg, po by LC-MS/MS method; assay type: ADME, organism-based; details: in vivo
Mus musculus [10] = assay: In vivo inhibition of AICARFT in tumor of athymic nude mouse xenografted with human MDA-MB-231met2 cells assessed as increase in ZMP levels at 30 mg/kg, bid administered via oral gavage for 22 days relative to control; assay type: functional
Mus musculus [11] = assay: Toxicity in athymic nude mouse xenografted with human MDA-MB-231met2 cells assessed as mortality at 30 to 60 mg/kg, bid administered via oral gavage for 22 days; assay type: organism-based; details: in vivo, 528 h
[12] = Antiproliferative activity against human MDA-MB-231met2 cells by Alamar blue assay; assay type: functional, cell-based
[13] = Fraction unbound in CD-1 mouse plasma; assay type: ADME, cell-free
Mus musculus [14] = assay: In vivo inhibition of AICARFT in tumor of low folate diet fed nude mouse xenografted with human NCI-H460 cells assessed as increase in intratumoral ZMP levels at 0.3 to 30 mg/kg after 4 hrs relative to vehicle-treated control; assay type: functional
NCI-H460 = assay: Cytotoxicity against human NCI-H460 cells assessed as growth inhibition using regular folate media after 7 days by Alamar blue assay; assay type: functional; details: NCI-H460, 168 h

CYP2D6, sequence (P10635 whole entry): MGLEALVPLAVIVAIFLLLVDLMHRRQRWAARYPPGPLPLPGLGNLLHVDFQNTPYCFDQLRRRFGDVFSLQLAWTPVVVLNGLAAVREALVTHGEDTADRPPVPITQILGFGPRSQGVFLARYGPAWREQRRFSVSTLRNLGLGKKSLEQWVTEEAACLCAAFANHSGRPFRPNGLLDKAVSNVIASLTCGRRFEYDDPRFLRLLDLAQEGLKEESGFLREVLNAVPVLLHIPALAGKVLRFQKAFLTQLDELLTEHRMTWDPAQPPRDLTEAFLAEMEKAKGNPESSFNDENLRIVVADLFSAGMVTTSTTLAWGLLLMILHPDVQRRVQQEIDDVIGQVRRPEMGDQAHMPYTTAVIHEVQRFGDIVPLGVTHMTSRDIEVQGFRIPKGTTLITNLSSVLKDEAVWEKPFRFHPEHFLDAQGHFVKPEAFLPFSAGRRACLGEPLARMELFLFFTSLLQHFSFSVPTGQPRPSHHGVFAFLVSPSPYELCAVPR
CYP3A4, sequence (P08684 whole entry): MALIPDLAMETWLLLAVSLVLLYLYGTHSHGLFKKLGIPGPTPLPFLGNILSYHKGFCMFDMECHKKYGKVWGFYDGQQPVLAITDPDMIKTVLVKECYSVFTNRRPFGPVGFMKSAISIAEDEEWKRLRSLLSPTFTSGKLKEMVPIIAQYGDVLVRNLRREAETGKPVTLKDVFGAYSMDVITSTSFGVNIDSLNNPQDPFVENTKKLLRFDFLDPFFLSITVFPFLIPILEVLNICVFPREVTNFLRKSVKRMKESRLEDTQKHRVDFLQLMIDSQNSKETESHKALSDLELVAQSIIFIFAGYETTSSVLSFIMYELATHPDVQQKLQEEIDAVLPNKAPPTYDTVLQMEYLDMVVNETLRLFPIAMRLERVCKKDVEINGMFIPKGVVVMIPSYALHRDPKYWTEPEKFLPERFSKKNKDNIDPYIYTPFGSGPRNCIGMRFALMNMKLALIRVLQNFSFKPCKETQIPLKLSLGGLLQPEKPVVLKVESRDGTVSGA

## O=c1[nH]ccc2cc(F)c(NS(=O)(=O)c3ccc(N4CC[C@@H](O)C4)s3)cc12
CYP3A4
  inhibition at 10 µM: < 10%
[1]
  IC50: > 100 µM
[2]
  Activity: 16%
Mus musculus [3]
  fold change (FC): 80
[4]
  IC50: > 100 µM
Mus musculus [5]
  fCmax: 289 nM
[6]
  IC50: > 100 µM
MDA-MB-231met2
  TGI: Dose-dependent effect
Mus musculus [7]
  Activity: Non-Toxic
[8]
  permeability: 0.2%
CYP2D6
  inhibition at 10 µM: < 10%
Mus musculus [9]
  fAUC: 1.279 µM·h
Mus musculus [10]
  fold change (FC): 10
Mus musculus [11]
  Activity: Non-Toxic
[12]
  IC50: 0.085 µM
[13]
  fraction unbound: 0.06
Mus musculus [14]
  fold change (FC): >100
NCI-H460
  GI50: 6.58 µM
